Assay results taken from ChEMBL document CHEMBL5154672, “Design and synthesis of HDAC inhibitors to enhance the therapeutic effect of diffuse large B-cell lymphoma by improving metabolic stability and pharmacokinetic characteristics” (Eur J Med Chem, 2022).

Key:
[1] = AUC (0 to infinity) in ICR mouse at 25 mg/kg, po measured upto 24 hrs by LC-MS/MS analysis; type: ADME, organism-based; design: time < 24 hrs, dose 25 mg/kg, route po; settings: in vivo
[2] = tested on: COLO-678; assay: Antiproliferative activity against human COLO-678 cells incubated for 72 hrs by luminescence assay; type: functional, cell-based; settings: COLO-678, 72 h
[3] = tested on: TMD8; assay: Antiproliferative activity against human TMD8 cells incubated for 72 hrs by luminescence assay; type: functional, cell-based; settings: TMD8, 72 h
[4] = tested on: HCT-116; assay: Antiproliferative activity against human HCT-116 cells assessed as remaining cell activity at 2 uM incubated for 72 hrs by luminescence assay relative to control; type: functional
[5] = Metabolic stability in dog liver microsomes assessed as half life measured for 75 to 130 mins by LC-MS/MS analysis; type: ADME, Canis lupus familiaris, Microsome; settings: time 75-130 min
[6] = tested on: TMD8; assay: Induction of apoptosis in human TMD8 cells assessed as viable cells at 0.5 uM incubated for 24 hrs by Annexin V-FITC/PI staining based flow cytometric analysis (reference value: 96.4%); type: functional; settings: read-out: Activity
[7] = molecular target: Histone deacetylase 2 (Homo sapiens, UniProt Q92769); assay: Inhibition of HDAC2 (unknown origin) using RHKK(Ac)AMC fluorogenic peptide as substrate preincubated for 10 mins followed by substrate addition for 1 hr in presence of ATP by fluoroscence based assay
Histone deacetylase 2, sequence (Q92769 whole entry): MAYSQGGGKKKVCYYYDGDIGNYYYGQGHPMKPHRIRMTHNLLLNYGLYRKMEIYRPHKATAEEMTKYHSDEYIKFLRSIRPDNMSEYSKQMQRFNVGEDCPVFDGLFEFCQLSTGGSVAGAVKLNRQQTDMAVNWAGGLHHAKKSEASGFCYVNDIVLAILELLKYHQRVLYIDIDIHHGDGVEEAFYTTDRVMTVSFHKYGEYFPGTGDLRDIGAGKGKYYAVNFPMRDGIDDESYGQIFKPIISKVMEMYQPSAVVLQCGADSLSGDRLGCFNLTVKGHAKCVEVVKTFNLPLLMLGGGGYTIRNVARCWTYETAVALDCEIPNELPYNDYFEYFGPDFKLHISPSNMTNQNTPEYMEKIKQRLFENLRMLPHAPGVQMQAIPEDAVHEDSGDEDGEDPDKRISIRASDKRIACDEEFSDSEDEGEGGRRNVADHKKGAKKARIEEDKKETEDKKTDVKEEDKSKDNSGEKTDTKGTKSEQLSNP

[8] = tested on: RS4-11; assay: Antiproliferative activity against human RS4-11 cells incubated for 72 hrs by luminescence assay; type: functional, cell-based; settings: RS4-11, 72 h
[9] = MRT (0 to t) in CB.17 SCID mouse xenografted with human TMD8 cells at 100 mg/kg, po measured upto 24 hrs by LC-MS/MS analysis; type: ADME, organism-based; settings: in vivo
[10] = AUC (0 to t) in CB.17 SCID mouse xenografted with human TMD8 cells at 50 mg/kg, po measured upto 24 hrs by LC-MS/MS analysis; type: ADME, organism-based; design: time < 24 hrs, dose 50 mg/kg, route po; settings: in vivo
[11] = tested on: MDA-MB-231; assay: Antiproliferative activity against human MDA-MB-231 cells incubated for 72 hrs by luminescence assay; type: functional, cell-based; settings: MDA-MB-231, 72 h
[12] = Metabolic stability in rat liver microsomes assessed as half life measured for 75 to 130 mins by LC-MS/MS analysis; type: ADME, Microsome; settings: time 75-130 min
[13] = tested on: TMD8; assay: Induction of apoptosis in human TMD8 cells assessed as necrotic cells at 0.5 uM incubated for 24 hrs by Annexin V-FITC/PI staining based flow cytometric analysis (RVB=1.85%); type: functional
[14] = AUC (0 to infinity) in CB.17 SCID mouse xenografted with human TMD8 cells at 50 mg/kg, po measured upto 24 hrs by LC-MS/MS analysis; type: ADME, organism-based; design: dose 50 mg/kg, time < 24 hrs, route po; settings: in vivo
[15] = tested on: A549; assay: Antiproliferative activity against human A549 cells assessed as remaining cell activity at 2 uM incubated for 72 hrs by luminescence assay relative to control; type: functional
[16] = AUC (0 to infinity) in CB.17 SCID mouse xenografted with human TMD8 cells at 100 mg/kg, po measured upto 24 hrs by LC-MS/MS analysis; type: ADME, organism-based; design: time < 24 hrs, dose 100 mg/kg, route po; settings: in vivo
[17] = Metabolic stability in mouse liver microsomes assessed as half life measured for 75 to 130 mins by LC-MS/MS analysis; type: ADME, Microsome; settings: time 75-130 min
[18] = tested on: TMD8; assay: Induction of apoptosis in human TMD8 cells assessed as late apoptotic cells at 2 uM incubated for 24 hrs by Annexin V-FITC/PI staining based flow cytometric analysis (reference value: 1.54%); type: functional
[19] = tested on: HuT78; assay: Antiproliferative activity against human HuT78 cells incubated for 72 hrs by luminescence assay; type: functional, cell-based; settings: HuT78, 72 h
[20] = tested on: TMD8; assay: Induction of apoptosis in human TMD8 cells assessed as necrotic cells at 2 uM incubated for 24 hrs by Annexin V-FITC/PI staining based flow cytometric analysis (reference value: 1.85%); type: functional
[21] = tested on: NCI-H460; assay: Antiproliferative activity against human NCI-H460 cells incubated for 72 hrs by luminescence assay; type: functional, cell-based; settings: NCI-H460, 72 h
[22] = tested on: TMD8; assay: Induction of apoptosis in human TMD8 cells assessed as late apoptotic cells at 1 uM incubated for 24 hrs by Annexin V-FITC/PI staining based flow cytometric analysis (reference value: 1.54%); type: functional
[23] = molecular target: Histone deacetylase 1 (Homo sapiens, UniProt Q13547); assay: Inhibition of HDAC1 (unknown origin) using RHKK(Ac)AMC fluorogenic peptide as substrate preincubated for 10 mins followed by substrate addition for 1 hr in presence of ATP by fluoroscence based assay
Histone deacetylase 1, sequence (Q13547 whole entry): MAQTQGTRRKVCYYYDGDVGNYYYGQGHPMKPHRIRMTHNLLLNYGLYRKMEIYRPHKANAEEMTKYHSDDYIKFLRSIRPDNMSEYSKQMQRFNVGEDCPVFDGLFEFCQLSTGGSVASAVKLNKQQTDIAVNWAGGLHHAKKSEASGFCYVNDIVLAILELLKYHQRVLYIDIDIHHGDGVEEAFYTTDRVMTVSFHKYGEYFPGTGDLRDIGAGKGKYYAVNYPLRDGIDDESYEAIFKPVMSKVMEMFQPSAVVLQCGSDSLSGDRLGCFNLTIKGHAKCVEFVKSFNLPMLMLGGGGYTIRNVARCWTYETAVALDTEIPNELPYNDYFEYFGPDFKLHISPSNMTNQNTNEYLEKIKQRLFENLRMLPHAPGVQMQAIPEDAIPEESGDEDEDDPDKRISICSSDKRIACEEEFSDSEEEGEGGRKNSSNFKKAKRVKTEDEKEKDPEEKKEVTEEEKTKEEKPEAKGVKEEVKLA

[24] = MRT (0 to t) in CB.17 SCID mouse xenografted with human TMD8 cells at 50 mg/kg, po measured upto 24 hrs by LC-MS/MS analysis; type: ADME, organism-based; settings: in vivo
[25] = tested on: TMD8; assay: Induction of apoptosis in human TMD8 cells assessed as viable cells at 2 uM incubated for 24 hrs by Annexin V-FITC/PI staining based flow cytometric analysis (reference value: 96.4%); type: functional; settings: read-out: Activity
[26] = MRT (0 to t) in CB.17 SCID mouse xenografted with human TMD8 cells at 25 mg/kg, po measured upto 24 hrs by LC-MS/MS analysis; type: ADME, organism-based; settings: in vivo
[27] = tested on: TMD8; assay: Induction of apoptosis in human TMD8 cells assessed as necrotic cells at 4 uM incubated for 24 hrs by Annexin V-FITC/PI staining based flow cytometric analysis (reference value: 1.85%); type: functional
[28] = tested on: TMD8; assay: Induction of apoptosis in human TMD8 cells assessed as viable cells at 1 uM incubated for 24 hrs by Annexin V-FITC/PI staining based flow cytometric analysis (reference value: 96.4%); type: functional; settings: read-out: Activity
[29] = tested on: TMD8; assay: Induction of apoptosis in human TMD8 cells assessed as late apoptotic cells at 4 uM incubated for 24 hrs by Annexin V-FITC/PI staining based flow cytometric analysis (reference value: 1.54%); type: functional
[30] = tested on: TMD8; assay: Induction of apoptosis in human TMD8 cells assessed as viable cells at 4 uM incubated for 24 hrs by Annexin V-FITC/PI staining based flow cytometric analysis (reference value: 96.4%); type: functional; settings: read-out: Activity
[31] = molecular target: Histone deacetylase 3 (Homo sapiens, UniProt O15379); assay: Inhibition of HDAC3 (unknown origin) using RHKK(Ac)AMC fluorogenic peptide as substrate preincubated for 10 mins followed by substrate addition for 1 hr in presence of ATP by fluoroscence based assay
Histone deacetylase 3, sequence (O15379 whole entry): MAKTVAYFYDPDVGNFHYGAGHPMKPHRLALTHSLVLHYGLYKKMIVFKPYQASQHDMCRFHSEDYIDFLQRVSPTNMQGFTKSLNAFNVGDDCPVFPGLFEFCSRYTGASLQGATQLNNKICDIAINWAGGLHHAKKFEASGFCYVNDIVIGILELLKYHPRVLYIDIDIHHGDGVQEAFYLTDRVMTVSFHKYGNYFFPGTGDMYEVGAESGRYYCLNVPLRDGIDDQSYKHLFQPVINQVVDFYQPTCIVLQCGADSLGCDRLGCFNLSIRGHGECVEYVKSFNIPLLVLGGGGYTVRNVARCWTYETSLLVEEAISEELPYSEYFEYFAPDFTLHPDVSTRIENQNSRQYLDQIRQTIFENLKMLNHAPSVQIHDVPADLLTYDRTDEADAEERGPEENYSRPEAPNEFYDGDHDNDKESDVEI

[32] = tested on: TMD8; assay: Induction of apoptosis in human TMD8 cells assessed as early apoptotic cells at 4 uM incubated for 24 hrs by Annexin V-FITC/PI staining based flow cytometric analysis (reference value: 0.24%); type: functional

Compound: Nc1ccccc1NC(=O)c1ccc(CN2CCC/C(=C\c3ccccn3)C2=O)cc1
- AUC(0-inf) [1]: 5180 ng·h/mL
- IC50 [2]: 8020 nM
- IC50 [3]: 310 nM
- Activity [4]: 44.01%
- half-life [5]: 17.9 h
- viability at 0.5 µM [6]: 95.8%
- IC50 [7]: 168 nM
- IC50 [8]: 470 nM
- MRT last at 24 h [9]: 1.43 h
- AUC(0-t) at 24 h [10]: 9710 ng·h/mL
- IC50 [11]: 2290 nM
- half-life [12]: 1.75 h
- Activity [13]: 2.29%
- AUC(0-inf) [14]: 9730 ng·h/mL
- Activity [15]: 48.53%
- AUC(0-inf) [16]: 9770 ng·h/mL
- half-life [17]: 2.88 h
- Activity [18]: 7.94%
- IC50 [19]: 800 nM
- Activity [20]: 6.52%
- IC50 [21]: 1580 nM
- Activity [22]: 3.13%
- IC50 [23]: 84.9 nM
- MRT last at 24 h [24]: 0.812 h
- viability at 2 µM [25]: 75.3%
- MRT last at 24 h [26]: 0.75 h
- Activity [27]: 8.19%
- viability at 1 µM [28]: 92.2%
- Activity [29]: 9.64%
- viability at 4 µM [30]: 57.4%
- IC50 [31]: 443 nM
- Activity [32]: 24.8%
